≈ marks a conversion by molar mass, not a printed value.
Key:
[1] = Selectivity index, ratio of CC50 for human MT4 cells to EC50 for HIV1 3B infected in MT4 cells; assay type: toxicity, cell-based; settings: read-out: Ratio CC50/EC50
[2] = test system: Vibrio cholerae; test: Antimicrobial activity against Vibrio cholerae 01 after 18 to 20 hr by agar dilution method; assay type: functional; settings: 1
[3] = test system: Priestia megaterium; test: Antimicrobial activity against Bacillus megaterium after 18 to 20 hr by agar dilution method; assay type: functional
[4] = test system: Enterobacter; test: Antimicrobial activity against Enterobacter after 18 to 20 hr by agar dilution method; assay type: functional
[5] = test system: Citrobacter freundii; test: Antimicrobial activity against Citrobacter freundii after 18 to 20 hr by agar dilution method; assay type: functional
[6] = test system: Salmonella enteritidis; test: Antimicrobial activity against Salmonella enterica subsp. enterica serovar Enteritidis after 18 to 20 hr by agar dilution method; assay type: functional
[7] = test system: Salmonella typhimurium; test: Antimicrobial activity against Salmonella enterica subsp. enterica serovar Typhimurium after 18 to 20 hr by agar dilution method; assay type: functional
[8] = test system: Proteus mirabilis; test: Antimicrobial activity against Proteus mirabilis after 18 to 20 hr by agar dilution method; assay type: functional
[9] = test system: Proteus vulgaris; test: Antimicrobial activity against Proteus vulgaris after 18 to 20 hr by agar dilution method; assay type: functional
[10] = test system: Edwardsiella tarda; test: Antimicrobial activity against Edwardsiella tarda after 18 to 20 hr by agar dilution method; assay type: functional
[11] = test system: Escherichia coli; test: Antimicrobial activity against Escherichia coli NCTC 10418 after 18 to 20 hr by agar dilution method; assay type: functional
[12] = test system: Salmonella typhi; test: Antimicrobial activity against Salmonella enterica subsp. enterica serovar Typhi after 18 to 20 hr by agar dilution method; assay type: functional
[13] = test system: Salmonella paratyphi; test: Antimicrobial activity against Salmonella enterica subsp. enterica serovar Paratyphi A after 18 to 20 hr by agar dilution method; assay type: functional
[14] = test system: Vibrio parahaemolyticus; test: Antimicrobial activity against Vibrio parahaemolyticus after 18 to 20 hr by agar dilution method; assay type: functional
[15] = test system: Vibrio cholerae; test: Antimicrobial activity against Vibrio cholerae 0139 after 18 to 20 hr by agar dilution method; assay type: functional; settings: 139
[16] = test system: Vibrio fluvialis; test: Antimicrobial activity against Vibrio fluvialis after 18 to 20 hr by agar dilution method; assay type: functional
[17] = test system: Vibrio mimicus; test: Antimicrobial activity against Vibrio mimicus after 18 to 20 hr by agar dilution method; assay type: functional
[18] = test system: Pseudomonas aeruginosa; test: Antimicrobial activity against Pseudomonas aeruginosa after 18 to 20 hr by agar dilution method; assay type: functional
[19] = test system: Staphylococcus aureus; test: Antimicrobial activity against Staphylococcus aureus after 18 to 20 hr by agar dilution method; assay type: functional
[20] = test system: Morganella morganii; test: Antimicrobial activity against Morganella morganii after 18 to 20 hr by agar dilution method; assay type: functional
[21] = test system: Shigella boydii; test: Antimicrobial activity against Shigella boydii after 18 to 20 hr by agar dilution method; assay type: functional
[22] = test system: Plesiomonas; test: Antimicrobial activity against Plesiomonas after 18 to 20 hr by agar dilution method; assay type: functional
[23] = test system: Shigella sonnei; test: Antimicrobial activity against Shigella sonnei after 18 to 20 hr by agar dilution method; assay type: functional
[24] = test system: Klebsiella pneumoniae; test: Antimicrobial activity against Klebsiella pneumoniae after 18 to 20 hr by agar dilution method; assay type: functional
[25] = test system: Klebsiella pneumoniae; test: Antimicrobial activity against Klebsiella pneumoniae subsp. ozaenae after 18 to 20 hr by agar dilution method; assay type: functional
[26] = test system: Mycobacterium tuberculosis; test: Antimycobacterial activity against Mycobacterium tuberculosis H37Rv ATCC 27294 at 6.25 ug/ml by MABA; assay type: functional
[27] = Cytotoxicity against Homo sapiens (human) HuH7 cells assessed as cell growth at 50 ug/ml after 3 days by Neutral red assay; assay type: cell-based, Huh-7; settings: read-out: Activity
[28] = Cytotoxicity against Homo sapiens (human) CEM cells after 5 days by MTT assay; assay type: cell-based; settings: CEM cells (CCRF-CEM)
[29] = test system: Human immunodeficiency virus 1; test: Antiviral activity against Human immunodeficiency virus 1 IIIB infected CEM cells assessed as protection against viral infection after 6 days by XTT assay; assay type: functional, CCRF-CEM; set-up: concentration or dose not given beside the values
[30] = test system: Human immunodeficiency virus 1; test: Antiviral activity against Human immunodeficiency virus 1 IIIB infected CEM cells assessed as inhibition of virus-induced cytopathicity after 6 days by XTT assay; assay type: functional, organism-based; settings: CCRF-CEM, 144 h
[31] = Cytotoxicity against Homo sapiens (human) MT4 cells after 5 days by MTT assay; assay type: cell-based
[32] = test system: Human immunodeficiency virus 1; test: Antiviral activity against Human immunodeficiency virus 1 IIIB infected MT4 cells assessed as inhibition of virus-induced cytopathicity after 5 days by MTT assay; assay type: functional, organism-based; settings: MT4, 120 h
[33] = test system: Hepatitis C virus; test: Antiviral activity against Hepatitis C virus BM4-5 infected in Huh7 cells assessed as inhibition of viral RNA replication by phosphor screening method; assay type: functional, Hepacivirus hominis, Huh-7
[34] = test system: Human immunodeficiency virus 1; test: Antiviral activity against Human immunodeficiency virus 1 IIIB infected MT4 cells assessed as protection against viral infection after 5 days by MTT assay; assay type: functional; set-up: concentration or dose not given beside the values

Row | Compound | selectivity ratio [1] | MIC [2] [µg/mL] | MIC [3] [µg/mL] | MIC [4] [µg/mL] | MIC [5] [µg/mL] | MIC [6] [µg/mL] | MIC [7] [µg/mL] | MIC [8] [µg/mL] | MIC [9] [µg/mL] | MIC [10] [µg/mL] | MIC [11] [µg/mL] | MIC [12] [µg/mL] | MIC [13] [µg/mL] | MIC [14] [µg/mL] | MIC [15] [µg/mL] | MIC [16] [µg/mL] | MIC [17] [µg/mL] | MIC [18] [µg/mL] | MIC [19] [µg/mL] | MIC [20] [µg/mL] | also measured
1 | COc1cc(Cc2cnc(/N=C3\C(=O)N(CN4CCCCC4C)c4ccc(Cl)cc43)nc2N)cc(OC)c1OC (stereo not drawn) | 3 | 4.88 (≈ 8.64 µM) | 625 (≈ 1110 µM) | 625 (≈ 1110 µM) | 625 (≈ 1110 µM) | 625 (≈ 1110 µM) | 1250 (≈ 2210 µM) | 625 (≈ 1110 µM) | 625 (≈ 1110 µM) | 1250 (≈ 2210 µM) | 625 (≈ 1110 µM) | 1250 (≈ 2210 µM) | 625 (≈ 1110 µM) | 1.22 (≈ 2.16 µM) | 625 (≈ 1110 µM) | 1250 (≈ 2210 µM) | 0.61 (≈ 1.08 µM) | 1250 (≈ 2210 µM) | 312 (≈ 553 µM) | 1250 (≈ 2210 µM) | MIC [21]: 4.88 µg/mL (≈ 8.64 µM); MIC [22]: 19.5 µg/mL (≈ 34.6 µM); MIC [23]: 1250 µg/mL (≈ 2210 µM); MIC [24]: 1250 µg/mL (≈ 2210 µM); MIC [25]: 1250 µg/mL (≈ 2210 µM); inhibition at 6.25 µg/mL [26]: 10%; viability at 72 h, 50 ug/ml [27]: 112%; CC50 at 120 h [28]: > 83.8 µg/mL; Activity [29]: 20.7%; EC50 [30]: > 83.8 µg/mL; CC50 at 120 h [31]: 97.3 µg/mL (≈ 172 µM); EC50 [32]: 32.6 µg/mL (≈ 57.7 µM); inhibition (INH) [33]: 89%; Activity [34]: 62.6%
2 | COc1cc(Cc2cnc(/N=C3\C(=O)N(CN(Cc4ccccc4)Cc4ccccc4)c4ccc(Cl)cc43)nc2N)cc(OC)c1OC | 3 | 1.22 (≈ 1.84 µM) | 1250 (≈ 1880 µM) | 625 (≈ 942 µM) | 1250 (≈ 1880 µM) | 625 (≈ 942 µM) | 1250 (≈ 1880 µM) | 625 (≈ 942 µM) | 625 (≈ 942 µM) | 625 (≈ 942 µM) | 625 (≈ 942 µM) | 625 (≈ 942 µM) | 625 (≈ 942 µM) | 19.5 (≈ 29.4 µM) | 312 (≈ 471 µM) | 1250 (≈ 1880 µM) | 4.88 (≈ 7.36 µM) | 1250 (≈ 1880 µM) | 625 (≈ 942 µM) | 625 (≈ 942 µM) | MIC [21]: 1.22 µg/mL (≈ 1.84 µM); MIC [22]: 39.1 µg/mL (≈ 58.9 µM); MIC [23]: 1250 µg/mL (≈ 1880 µM); MIC [24]: 1250 µg/mL (≈ 1880 µM); MIC [25]: 1250 µg/mL (≈ 1880 µM); inhibition at 6.25 µg/mL [26]: 97%; viability at 72 h, 50 ug/ml [27]: 65%; CC50 at 120 h [28]: 37.1 µg/mL (≈ 55.9 µM); Activity [29]: 20.98%; EC50 [30]: > 37.1 µg/mL; CC50 at 120 h [31]: 44.1 µg/mL (≈ 66.5 µM); EC50 [32]: 10.4 µg/mL (≈ 15.7 µM); inhibition (INH) [33]: 81%; Activity [34]: 95.1%
3 | CCCCN(CCCC)CN1C(=O)/C(=N\c2ncc(Cc3cc(OC)c(OC)c(OC)c3)c(N)n2)c2cc(Cl)ccc21 | 3 | 0.61 (≈ 1.03 µM) | 1250 (≈ 2100 µM) | 1250 (≈ 2100 µM) | 1250 (≈ 2100 µM) | 625 (≈ 1050 µM) | 1250 (≈ 2100 µM) | 1250 (≈ 2100 µM) | 1250 (≈ 2100 µM) | 1250 (≈ 2100 µM) | 1250 (≈ 2100 µM) | 1250 (≈ 2100 µM) | 625 (≈ 1050 µM) | 19.5 (≈ 32.8 µM) | 625 (≈ 1050 µM) | 1250 (≈ 2100 µM) | 4.88 (≈ 8.2 µM) | 2500 (≈ 4200 µM) | 1250 (≈ 2100 µM) | 625 (≈ 1050 µM) | MIC [21]: 39.1 µg/mL (≈ 65.6 µM); MIC [22]: 39.1 µg/mL (≈ 65.6 µM); MIC [23]: 1250 µg/mL (≈ 2100 µM); MIC [24]: 1250 µg/mL (≈ 2100 µM); MIC [25]: 1250 µg/mL (≈ 2100 µM); inhibition at 6.25 µg/mL [26]: 67%; viability at 72 h, 50 ug/ml [27]: 48%; CC50 at 120 h [31]: 62.6 µg/mL (≈ 105 µM); EC50 [32]: 16.1 µg/mL (≈ 27.1 µM); inhibition (INH) [33]: 84%; Activity [34]: 73.2%
4 | COc1cc(Cc2cnc(/N=C3\C(=O)N(CN4CCN(c5ccc(F)cc5)CC4)c4ccc(Cl)cc43)nc2N)cc(OC)c1OC | 3 | 4.88 (≈ 7.55 µM) | 625 (≈ 967 µM) | 625 (≈ 967 µM) | 625 (≈ 967 µM) | 625 (≈ 967 µM) | 625 (≈ 967 µM) | 625 (≈ 967 µM) | 625 (≈ 967 µM) | 625 (≈ 967 µM) | 625 (≈ 967 µM) | 625 (≈ 967 µM) | 312 (≈ 484 µM) | 39.1 (≈ 60.5 µM) | 625 (≈ 967 µM) | 1250 (≈ 1930 µM) | 4.88 (≈ 7.55 µM) | 1250 (≈ 1930 µM) | 625 (≈ 967 µM) | 625 (≈ 967 µM) | MIC [21]: 19.5 µg/mL (≈ 30.2 µM); MIC [22]: 9.76 µg/mL (≈ 15.1 µM); MIC [23]: 1250 µg/mL (≈ 1930 µM); MIC [24]: 1250 µg/mL (≈ 1930 µM); MIC [25]: 625 µg/mL (≈ 967 µM); inhibition at 6.25 µg/mL [26]: 35%; viability at 72 h, 50 ug/ml [27]: 64%; CC50 at 120 h [28]: 71 µg/mL (≈ 110 µM); Activity [29]: 22.98%; EC50 [30]: > 71 µg/mL; CC50 at 120 h [31]: 65.6 µg/mL (≈ 102 µM); EC50 [32]: 56.1 µg/mL (≈ 86.8 µM); inhibition (INH) [33]: 80%; Activity [34]: 59.6%

Source: ChEMBL document CHEMBL3045426, “Synthesis, Antiviral and Antibacterial Activities of Isatin Mannich Bases” (Med Chem Res, 2005)
